Results: US20240360458A1, “TARGETED AND SLOW-RELEASE DRUG CONJUGATE COMPOSITION” (Centre for Eye and Vision Research Limited, priority 2023, published 2024)

How the values were obtained:
[1] = tested on: BAC-induced dry eye rabbit model; experiment: Tear production (Schirmer tear strips) in BAC-induced dry eye rabbits; type: in vivo, New Zealand White rabbits; details: after 4-week 0.1% BAC installation
Description: (§1) A 4-week 0.1% BAC treatment could induce stable dry eye condition in rabbits and no severe corneal damage was observed. Thus, a 4-week 0.1% BAC installation followed by a 3-week topical treatment of Restasis® or liposomes was used in the present invention. Corneal fluorescein staining, tear breakup time and tear production were measured before and after BAC installation and weekly throughout the 3-week treatment period.
(§2) Ten male New Zealand White rabbits, weighing between 3 to 3.5 kg each, were procured from Charles River Laboratories. They were housed within the Centralized Animal Facility at the University of Waterloo, where they were subjected to a 12-hour cycle of alternating light and darkness. The temperature was maintained at 23° C.±2° C., with a relative humidity of 60%±10%. The entire experimental procedure was conducted by ethical guidelines and received approval from the Animal Care Committee under Application No. 44737. Upon a 2-week acclimation period, eight rabbits were chosen at random to induce stable dry eye disease. […]
The aqueous tear production was measured with Schirmer Tear Strips (SPORTS WORLD VISION). The strips were placed inside the margin of the nictitating membrane of the lower eyelid of the rabbit for 5 min and the wetting length of the strip was measured as an indication of tear production.

[2] = tested on: BAC-induced dry eye rabbit model; experiment: Tear break-up time (TBUT) in BAC-induced dry eye rabbits; type: in vivo, New Zealand White rabbits; details: after 4 weeks of 0.1% BAC installation
Description: as §1, §2
Rabbits were sedated by the aforementioned procedure. TBUT was evaluated utilizing a handheld EasyTear® VIEW+ Tearscope with a grid pattern, in conjunction with the S4 OPTIK HR Elite Mega Digital Vision system. […] This measurement was repeated thrice to ensure accuracy, and an average value was calculated for analysis.

[3] = tested on: BAC-induced dry eye rabbit model; experiment: Corneal fluorescein staining in BAC-induced dry eye rabbits; type: in vivo, New Zealand White rabbits; details: 4-week 0.1% BAC, then topical treatment twice daily up to 3 weeks
Description: as §1
as §2, with “disease. This was achieved through the topical application of 0.1% benzalkonium chloride (BAC) at a dosage of 20 μL per installation. This protocol was repeated twice a day (at 10 a.m. and 5 p.m.) for the subsequent 4 weeks. The remaining two rabbits constituted the control group and received PBS through a similar administration schedule.” for “disease.”

[4] = tested on: human corneal epithelial cells (HCECs); experiment: Fluorescence microscopy of FAM-labelled aptamer binding in HCECs; details: FAM-labelled DNA, 30 min incubation
Description: (§3) HCECs were seeded on glass bottom culture dishes at 10,000 cells/compartment for 24 h. To test the binding of the aptamer to cells, HCECs were incubated with FAM-labelled T30 DNA sequence (negative control), Cornea-S1, or Cornea-S2 aptamers for 30 min. […] HCECs cultured in the isosmotic medium were used as a control. After incubation, the cells were washed 2 times with ice-cold PBS and were then stained with 1 μg mL^−1 Hoechst 33342 in PBS for nucleus staining for 1 min at RT. Fluorescence images were captured at the mid-plane of cells (magnification: 400×) by Nikon Eclipse Ti Inverted Research Microscope. The excitation wavelengths of Hoechst, Rh-PE, and FAM were 361 nm, 560 nm, and 498 nm respectively.
Furthermore, the binding of FAM-labelled aptamers in HCECs was visualized under a fluorescence microscope.

[5] = tested on: human corneal epithelial cells (HCECs); experiment: Flow cytometry binding affinity of aptamer CsA liposomes in HCECs; details: liposome vs free aptamer
Description: The binding affinity of each aptamer liposome in HCECs was measured by flow cytometry. The cells were incubated with liposomes at room temperature, instead of in a 37° C. incubator, to reduce the internalization of liposomes by endocytosis. […] This apparent Kd is much lower than that observed in the free aptamers, for example, Cornea-S1 being 300-fold lower, and this was attributed to the stronger polyvalent binding increasing the avidity of the aptamer-functionalized liposomes.
(§4) The cells were then incubated with blocking buffer (1% BSA, 0.1 mg mL^−1 Salmon sperm DNA in PBS) for 30 min at room temperature. After washing with PBS under centrifugation, 3×10^5 cells were incubated with pre-heated Cornea-S1 or Cornea-S2 aptamers or aptamer liposomes at various concentrations in PBS for 30 min at room temperature. After incubation, the cells were rinsed three times with 500 μL of PBS and then resuspended in 200 μL of PBS. The fluorescence signal was analyzed with a NovoCyte Flow Cytometer (Agilent Technologies). The equilibrium dissociation constants (Kd) value of each aptamer or aptamer liposome was obtained by GraphPad Prism 9 according to […]

[6] = tested on: HCECs in hyperosmolarity medium; experiment: Cellular uptake and retention of CsA liposomes in dry eye HCECs model; type: cell-based, human; details: DED model
Description: To construct a dry eye disease (DED) cell model, HPV-immortalized human corneal epithelial cells (HCECs) (passages 6-10) were maintained in DMEM/F12 medium supplemented with 1% FBS and 1% penicillin/streptomycin at 37° C., 95% humidity, and 5% CO2. The cell medium was changed every 2 days. To establish an in vitro DED model, sodium chloride was added to the culture medium to increase the osmolarity of the medium by 200 mOsM.
as §3, with “The excitation wavelengths of Hoechst, Rh-PE, and FAM were 361 nm, 560 nm, and 498 nm respectively.” left out
The CsA-loaded liposomes were tested for cellular uptake and retention in a dry eye HCECs model induced by a high osmolarity medium. […] Additionally, liposome retention in cells was assessed by pretreating the cells with liposomes for 4 hours, followed by a 20-hour incubation period in liposome-free medium.

[7] = tested on: human corneal epithelial cells (HCECs); experiment: Flow cytometry binding of FAM-labelled aptamers to HCECs; details: FAM-labelled free aptamer, room temperature, read-out: dissociation constant (Kd) of aptamer in HCECs
Description: Due to the large size of cornea tissue, it is difficult to do quantitative binding assays. Thus, the binding of FAM-labelled aptamer to human corneal epithelial cells (HCECs) was tested using flow cytometry and fluorescence microscopy. BSA and salmon DNA were added to the blocking buffer to reduce non-specific binding before the incubation with FAM-labelled aptamers.
as §4

[8] = tested on: cell surface protein of HCECs; experiment: Flow cytometry of aptamer binding to intact vs trypsin-treated HCECs; parameters: species or system human
Description: To understand the type of target, the HCECs were treated with trypsin, which degraded surface proteins.
as §4

[9] = tested on: unidentified trypsin-sensitive surface protein(s) of human corneal epithelial cells (HCECs) (Homo sapiens); experiment: flow
[10] = 3'-FAM, whole-cell apparent Kd, PBS, room temperature, 30 min, trypsin treatment lowers binding

benzalkonium chloride [BAC] was tested, and the “decrease in tear production” value [1] was 25-35% and the “reduction in TBUT compared to baseline” value [2] was 60-70%.
With “Cornea-S1: DNA aptamer from cornea tissue-SELEX, family 1: GACGACGGCAAGGGGAAAGTGGTCGTAATCACGACGGTCGTC (DNA, backbone not given here; further chemistry not fully specified)” the “corneal fluorescein staining / corneal integrity” value [3] was “markedly diminished to residual staining or isolated dots”, the “FAM signals in HCECs under fluorescence microscope” value (“FAM signals in HCECs” below) ([4]; listed as Conrea-S1) was “intensive FAM signals” and the “FAM signals in HCECs” value ([4]; listed as Corena-S1) was “observably higher than Conrea-S2 and S2.2 aptamer”. For the same substance, the “apparent Kd of liposome lower than that of the free aptamer” value [5] was 300 fold, the “extended retention of liposomes” value [6] was “up to 24 hours” and the Kd [7] was 362 nM. For the same substance, the “FAM signals in trypsin-treated cells compared with intact cells” value [8] was “significantly lower FAM signals”.
For “GACGACGGCAAGGGGAAAGTGGTCGTAATCACGACGGTCGTC [FAM-Cornea-S1]”, the Kd [9, 10] was 362 nM.
Substance “GACGACTTATGCTTGGGACCTGATCCGGACTACGGTGTCGTC [FAM-Cornea-S2]” has a Kd [9, 10] of 174 nM.
With “Cornea-S2: DNA aptamer from cornea tissue-SELEX, family 2: GACGACTTATGCTTGGGACCTGATCCGGACTACGGTGTCGTC (DNA, backbone not given here; further chemistry not fully specified)” the “FAM signals in HCECs” value [4] was “intensive FAM signals”, the “extended retention of liposomes” value [6] was “up to 24 hours” and the Kd [7] was 174 nM. The “FAM signals in trypsin-treated cells compared with intact cells” value [8] was “significantly lower FAM signals”.
Work on “GACGACTTATGCTTGGGACCTGATCCGGACTACGGTGTCGTCTTTTT [Cornea-S2-chol liposome]” yielded a Kd ([9]; 3'-cholesterol, inserted in CsA liposome (about 690 strands per liposome), polyvalent liposome on whole cells, p92 gives 15.1 nM) of 15 nM.
In the case of “GACGACGGCAAGGGGAAAGTGGTCGTAATCACGACGGTCGTCTTTTT [Cornea-S1-chol liposome]”, the Kd ([9]; 3'-cholesterol, inserted in CsA liposome (about 690 strands per liposome), polyvalent liposome on whole cells, PBS, room temperature) is reported as 1.2 nM.
